Assays:
[1] = test system: membrane surface Na^+–Ca^2+ exchange; parameters: method as in doi:10.13005/bpj/1892; conditions: decreases sarcoplasmic reticulum Ca2+ release; cited from earlier work
[2] = test system: Sarcoplasmic reticulum RyR2Ca^2+ channels; parameters: method as in doi:10.13005/bpj/1892; conditions: cited from earlier work
[3] = Metabolite identification of DH in rat plasma, urine, feces and rat liver microsomes by UHPLC-Q-Orbitrap MS/MS; assay type: in vivo; conditions: rat plasma
Method: For the analysis of DH metabolites, the same UHPLC-MS/MS system was used for the plasma analysis, and the ACQUIT UHPLC BEH C18 column was also utilized. Mobile phase A consisted of 0.1% formic acid in water (v/v), while mobile phase B comprised acetonitrile. The flow rate was maintained at 0.2 mL/min, with a 10 µL injection volume. The column temperature was kept constant at 35 °C, and the RS autosampler temperature was maintained at 10 °C. The gradient elution was as follows: 0–3 min(5%B), 3–11 min (7%B), 11–18 min (7%B), and 18–45 min (30%B). A full MS/dd MS^2 mode in positive heated electrospray ionization (HESI) with 140,000 (for MS) and 17,500 (for MS/MS) resolutions was used for the Q–Exactive Plus Orbitrap MS. The compounds identified in full MS/dd MS^2 mode will be scanned using PRM scanning. The following MS parameters were employed: AGC target, 1 × 10^6; Maximum IT, 100 ms; Spray voltage, 3.2 kV; Capillary temp, 320 °C; S-lens RF level, 55; HCD Energy 20, 40, and 60.
Rat liver microsomes were used for in vitro experiments to study DH metabolism in rats more quickly and easily. After that, the cofactors of phases I and II were added to create the phase I and phase II metabolic systems. The composition of the reagent kit and the procedure can be found in our previous work.
For the plasma study, 100 µL of plasma was obtained from rats at 0.5, 1, 2, and 4 h after medicine administration. Then, 300 µL of acetonitrile was added to the above plasma, vortexed for 1 min, and centrifuged for 7 min. The supernatant was collected, and the remaining liquid was dried using nitrogen gas at 40 °C. The blow-dried samples were re-dissolved in 100 µL methanol, sonicated for 1 min, and centrifuged for 7 min.
Urine was collected during the period spanning from 0 to 48 h following administration, with each period’s combined urine comprising 10 mL and 30 mL of acetonitrile added thereto. After a 10 min interval of sonication, the urine samples were transferred into 1.5 mL centrifuge tubes, vortexed for 1 min, and then centrifuged at a speed of 14,000 rpm for 10 min. Successively, the supernatant was merged and subjected to drying by nitrogen gas at 40 °C. The blow-dried samples were re-dissolved in 100 µL of methanol, sonicated for 1 min, and centrifuged for 7 min.
For the fecal study, feces were collected within 0–48 h following administration, dried to powder at room temperature in a shaded area, and combined to yield 8 mL per period, to which 40 mL of acetonitrile was added. Following 30 min of sonication, the samples were transferred to 1.5 mL centrifuge tubes and centrifuged at 14,000 rpm for 10 min. The supernatant was collected and dried with nitrogen at 40 °C before analysis via UHPLC-MS/MS. Before analysis, the blow-dried samples were re-dissolved in 100 µL of methanol, sonicated for 1 min, and centrifuged for 7 min.
Compound Discovery 3.3 was used for data processing. The MS spectrometric features mainly include retention time, exact mass, peak intensity, and fragment ions. The data processing mainly included selecting spectra, aligning retention times, creating pattern traces, creating fish traces, generating expected compounds, finding expected compounds, grouping expected compounds, fish scoring, and marking background compounds. The mass tolerance is less than 5 ppm.

[4] = Stability of DH in rat plasma samples (autosampler, −80 °C storage, room temperature, freeze–thaw); assay type: in vitro ADME; conditions: for Accuracy, 4 h / Accuracy, 8 h / Accuracy, 12 h: autosampler; for Accuracy, Room temper: room temperature; for Accuracy, 1 day / Accuracy, 7 days / Accuracy, 15 days: stored at −80 °C; for Accuracy, Thaw: three freeze–thaw cycles
Method: Three concentrations were used to test the stability of plasma samples in a variety of circumstances. […] Its accuracy range was 97.46–109.44%. When samples were stored at −80 °C, the accuracy of the samples ranged from 99.44% to 109.22% at three concentrations on days 1, 7, and 15. The prepared QC samples were placed in the autosampler and injected at 4, 8, and 12 h. The accuracy was calculated to be in the range of 103.34–110.57%. The prepared stability samples were stored at −80 °C and the accuracy range was measured from 97.37% to 104.56% after three sequential freeze–thaw cycles.
DH was added to the blank plasma to produce concentrations of 1, 10, 100, and 500 ng/mL QC samples. Then, 10 µL DH was added to blank plasma and vortexed for 3 s. Next, 10 µL IS was added to the plasma and vortexed for 3 s, while 300 µL of acetonitrile was added to the above plasma, vortexed for 1 min, and centrifuged for 7 min. The mixture supernatant was collected and blown dry at 40 °C under nitrogen. Blow-dried samples were re-dissolved in 100 μL of 30% acetonitrile in water and centrifuged for 7 min.
Although acetonitrile precipitates most of the protein, plasma samples contain phospholipids, metabolites, etc., that interfere with the detection of DH and IS. Specificity was mainly examined at DH and IS retention times without interference peaks in blank plasma. In addition, samples tested after administration should not show interfering peaks at the DH and IS peak times. The standard curves were made up of 8 nonzero analyte points, and the linearity was tested. The correlation of peak area (analyte/IS) with the labeled plasma concentration was plotted for regression analysis. This analyte was predicted to have a correlation coefficient (r^2) of more than 0.99 with the corresponding standard curve. The relative standard deviation (RSD) and relative error (RE) values were calculated by measuring six repeated QC samples on the same day to evaluate the intra-day precision and accuracy. Inter-day precision and accuracy were characterized by RSD and RE, respectively. The recoveries were determined by examining the ratio of the peak areas of DH before and after extraction. The matrix effect is the ratio of the peak area of DH added to plasma and DH dissolved in the solvent. The stability evaluation should guarantee that the concentration of the analyte remains unchanged throughout the sample preparation and analysis process, as well as during storage. Stability studies include long-term storage stability at −80 °C (1, 7 and 15 days); repeated freeze–thaw stability; autosampler stability; room temperature stability; and long-term storage stability of stock solutions.

[5] = nominal concentration 100 ng/mL
[6] = nominal concentration 500 ng/mL

## COc1cc2c(cc1OC)C(c1ccc(N(C)C)cc1)NCC2 (stereo not shown) [DH, N, N-dimethylaniline-heliamine]
[1]
  membrane surface Na+–Ca2+ exchange inhibition: inhibitor
[2]
  inhibition of sarcoplasmic reticulum RyR2 Ca2+ channels: inhibited
[3]
  Rat and LM* (matrices in which DH or the metabolite was detected): P*, U*, F*, LM*
[4]; nominal concentration 10 ng/mL
  Accuracy, 4 h: 110.30%
  Accuracy, 8 h: 108.80%
  Accuracy, 12 h: 110.57%
  Accuracy, Room temper: 109.44%
  Accuracy, 1 day: 109.12%
  Accuracy, 7 days: 108.43%
  Accuracy, 15 days: 106.68%
  Accuracy, Thaw: 100.00%
[4]; [5]
  Accuracy, 4 h: 106.65%
  Accuracy, 8 h: 106.69%
  Accuracy, 12 h: 103.81%
  Accuracy, Room temper: 101.36%
  Accuracy, 1 day: 103.58%
  Accuracy, 7 days: 106.23%
  Accuracy, 15 days: 101.13%
  Accuracy, Thaw: 104.56%
[4]; [6]
  Accuracy, 4 h: 105.03%
  Accuracy, 8 h: 103.54%
  Accuracy, 12 h: 103.34%
  Accuracy, Room temper: 97.46%
  Accuracy, 1 day: 99.17%
  Accuracy, 7 days: 105.59%
  Accuracy, 15 days: 94.99%
  Accuracy, Thaw: 97.37%
[4]; kept at room temperature
  time stable in rat plasma samples: at least 12 h
